Patent US7902187B2, “6-substituted 2-(benzimidazolyl)purine and purinone derivatives for immunosuppression” (Wyeth LLC, priority 2006, dated 2011)

Target: T1, Jak3 (Homo sapiens, UniProt P52333)
T1 construct: A fragment encoding the catalytic domain of Jak3 (508aa to 1124aa) was ligated with GST at 5′ end; made in house; host or cells: Sf9 insect cells (baculovirus, pFastBac 1)
T1 sequence (P52333 508-1124): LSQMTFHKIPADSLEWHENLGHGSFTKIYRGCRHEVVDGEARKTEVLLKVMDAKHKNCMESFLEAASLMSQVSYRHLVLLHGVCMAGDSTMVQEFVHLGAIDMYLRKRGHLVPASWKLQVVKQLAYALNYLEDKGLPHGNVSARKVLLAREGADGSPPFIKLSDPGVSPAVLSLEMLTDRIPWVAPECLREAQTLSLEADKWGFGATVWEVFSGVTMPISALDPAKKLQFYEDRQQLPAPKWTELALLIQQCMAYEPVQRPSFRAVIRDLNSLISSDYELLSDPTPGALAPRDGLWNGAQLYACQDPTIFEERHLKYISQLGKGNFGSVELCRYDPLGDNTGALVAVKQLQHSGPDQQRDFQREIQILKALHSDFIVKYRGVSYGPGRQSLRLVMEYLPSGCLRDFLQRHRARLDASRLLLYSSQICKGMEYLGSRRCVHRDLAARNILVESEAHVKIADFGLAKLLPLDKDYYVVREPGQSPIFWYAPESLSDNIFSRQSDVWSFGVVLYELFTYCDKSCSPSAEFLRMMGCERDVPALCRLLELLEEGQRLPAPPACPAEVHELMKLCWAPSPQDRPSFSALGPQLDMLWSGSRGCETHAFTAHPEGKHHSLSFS
Experiment: Jak3 Kinase Assay (HTRF)
Assay type: biochemical
Settings: GST-Jak3 catalytic domain, 1 μM ATP, 60-min incubation; read-out: Jak3 Kinase, IC50 representation
Procedure: Human Jak3 cDNA was amplified by PCR. A fragment encoding the catalytic domain of Jak3 (508aa to 1124aa) was ligated with GST at 5′ end. This fused GST-Jak3 DNA fragment was cloned into the EcoRI site of the donor plasmid pFastBac 1 (Life Technologies #10359-016). The transformation, transposition, and transfection of insect cells (Sf9) were performed according to the manufacture's instructions. The cell lysate containing recombinant GST-Jak3 was used in the kinase assay. Anti-GST antibody (10 μg/ml, Sigma #G1417) was coated onto a 384-well plate at 4° C. overnight. Cell lysate containing GST-Jak3 (1:100 dilution) was added to the anti-GST coated plates, and GST-Jak3 was captured by immobilized anti-GST antibody. Testing compounds and substrate mix (50 mM HEPES, pH 7, 0.5 mM Na3VO4, 25 mM MgCl2, 1 mM DTT, 0.005% BSA, 1 μM ATP, and 4.5 μg/ml biotinyl poly-Glu,Ala,Tyr) were added to the plate to initiate the reaction. After a 60-min incubation, the reaction was stopped by 4 mM EDTA, and phosphorylation of biotinyl poly-Glu,Ala,Tyr was detected using 17 μg/ml Cy5-streptavidin (Amersham, #PA92005) and 2.7 μg/ml Europium-conjugated anti-phosphotyrosine antibody (PerkinElmer #AD0069) using homogeneous time-resolved fluorescence (HTRF) technology.

IC50 [nM]	SMILES
< 100	N#Cc1ccc2ncn(-c3nc(N4CC(F)(F)C4)c4[nH]c(=O)n([C@H]5CC[C@H](O)CC5)c4n3)c2c1
< 100	N#Cc1ccc2ncn(-c3nc(N4CCNCC4)c4[nH]c(=O)n(C5CCOCC5)c4n3)c2c1
< 100	N#Cc1ccc2ncn(-c3nc(N4CCC4)c4[nH]c(=O)n(C5CCOCC5)c4n3)c2c1
< 100	N#Cc1ccc2ncn(-c3nc(NCCCN4CCCCC4)c4[nH]c(=O)n(C5CCOCC5)c4n3)c2c1
< 100	Cn1c(=O)n([C@H]2CC[C@H](O)CC2)c2nc(-n3cnc4ccc(F)cc43)nc(N3CC[C@H](F)C3)c21
< 100	CN1CCN(c2nc(-n3cnc4ccc(C#N)cc43)nc3c2[nH]c(=O)n3C2CCOCC2)CC1
< 100	O=c1[nH]c2c(-c3cn[nH]c3)nc(-n3cnc4ccc(F)cc43)nc2n1C1CCOCC1
< 100	Cc1nc2c(-c3ccncc3)nc(-n3cnc4ccc(Cl)cc43)nc2n1C1CCOCC1
< 100	O=c1[nH]c2c(N3CCC3)nc(-n3cnc4ccc(F)cc43)nc2n1[C@@H]1CCOc2c(F)cccc21
< 100	O=c1[nH]c2c(-c3ccncc3)nc(-n3cnc4ccc(Cl)cc43)nc2n1C1CCOCC1
< 100	N#Cc1ccc2ncn(-c3nc(NCC4CC4)c4[nH]c(=O)n(C5CCOCC5)c4n3)c2c1
< 100	CN1CCCN(c2nc(-n3cnc4ccc(F)cc43)nc3c2[nH]c(=O)n3C2CCOCC2)CC1
< 100	N#Cc1ccc2ncn(-c3nc(NC4CCC4)c4[nH]c(=O)n(C5CCOCC5)c4n3)c2c1
< 100	CC(C)(C)OC(=O)N1CC(CNc2nc(-n3cnc4ccc(F)cc43)nc3c2[nH]c(=O)n3C2CCOCC2)C1
< 100	O=c1[nH]c2c(N3CCCCC3)nc(-n3cnc4ccc(F)cc43)nc2n1C1CCOCC1
< 100	CN(C)C(=O)CNc1nc(-n2cnc3ccc(F)cc32)nc2c1[nH]c(=O)n2C1CCOCC1
< 100	Cn1c(=O)n([C@H]2CC[C@H](O)CC2)c2nc(-n3cnc4ccc(F)cc43)nc(N3CCC(F)CC3)c21
< 100	Cn1c(=O)n([C@H]2CC[C@H](O)CC2)c2nc(-n3cnc4ccc(C#N)cc43)nc(-c3ccncc3)c21
< 100	O=c1[nH]c2c(N3CCC(F)CC3)nc(-n3cnc4ccc(F)cc43)nc2n1C1CCOCC1
< 100	O=c1[nH]c2c(N3CCC(F)(F)CC3)nc(-n3cnc4ccc(F)cc43)nc2n1C1CCOCC1
< 100	Cn1c(=O)n([C@H]2CC[C@H](O)CC2)c2nc(-n3cnc4ccc(Cl)cc43)nc(N3CCC(F)(F)CC3)c21
< 100	COCCCCn1c(=O)[nH]c2c(N3CC(F)(F)C3)nc(-n3cnc4ccc(C#N)cc43)nc21
< 100	COCCCNc1nc(-n2cnc3ccc(Cl)cc32)nc2c1[nH]c(=O)n2C1CCOCC1
< 100	O=c1[nH]c2c(CO)nc(-n3cnc4ccc(F)cc43)nc2n1C1CCOc2ccccc21 (stereo not shown)

IC50 [nM]	SMILES
< 100	N#CCCCc1nc(-n2cnc3ccc(F)cc32)nc2c1[nH]c(=O)n2[C@@H]1CCOc2c(F)cccc21
< 100	Cc1ncccc1Cn1c(=O)[nH]c2c(N3CC(F)(F)C3)nc(-n3cnc4ccc(C#N)cc43)nc21
< 100	CC(C)(C)OC(=O)N1CC(Nc2nc(-n3cnc4ccc(F)cc43)nc3c2[nH]c(=O)n3C2CCOCC2)C1
< 100	O=c1[nH]c2c(-c3ccncc3)nc(-n3cnc4ccc(F)cc43)nc2n1C1CCOCC1
< 100	Cn1c(=O)n(C2CCOCC2)c2nc(-n3cnc4ccc(Cl)cc43)nc(N3CC(F)(F)C3)c21
< 100	O=c1[nH]c2c(N3CCCC(F)(F)C3)nc(-n3cnc4ccc(F)cc43)nc2n1C1CCOCC1
< 100	N#Cc1ccc2ncn(-c3nc(N4CC(F)(F)C4)c4[nH]c(=O)n(Cc5cccnc5)c4n3)c2c1
< 100	O=c1[nH]c2c(N3CC(F)(F)C(F)(F)C3)nc(-n3cnc4ccc(F)cc43)nc2n1C1CCOCC1
< 100	O=C(O)c1nc(-n2cnc3ccc(F)cc32)nc2c1[nH]c(=O)n2C1CCOc2ccccc21 (stereo not shown)
< 100	NC(=O)c1nc(-n2cnc3ccc(F)cc32)nc2c1[nH]c(=O)n2C1CCOc2ccccc21 (stereo not shown)
< 100	CNC(=O)c1nc(-n2cnc3ccc(F)cc32)nc2c1[nH]c(=O)n2C1CCOc2ccccc21 (stereo not shown)
< 100	Cn1c(=O)n([C@H]2CC[C@H](O)CC2)c2nc(-n3cnc4ccc(F)cc43)nc(N3CCCCC3)c21
< 100	COCCCn1c(=O)[nH]c2c(N3CC(F)(F)C3)nc(-n3cnc4ccc(C#N)cc43)nc21
< 100	COc1ccc(-c2nc(-n3cnc4ccc(F)cc43)nc3c2[nH]c(=O)n3C2CCOCC2)cn1
< 100	CCc1noc(CNc2nc(-n3cnc4ccc(F)cc43)nc3c2[nH]c(=O)n3C2CCOCC2)n1
< 100	CO[C@H]1CC[C@H](n2c(=O)[nH]c3c(N4CC(F)(F)C4)nc(-n4cnc5ccc(C#N)cc54)nc32)CC1
< 100	O=c1[nH]c2c(-c3cccnc3)nc(-n3cnc4ccc(F)cc43)nc2n1C1CCOCC1
< 100	O=c1[nH]c2c(N[C@@H]3CCC[C@@H]3O)nc(-n3cnc4ccc(F)cc43)nc2n1C1CCOCC1
< 100	O=c1[nH]c2c(Oc3ccncc3)nc(-n3cnc4ccc(F)cc43)nc2n1C1CCOCC1
< 100	N#CCNC(=O)c1nc(-n2cnc3ccc(F)cc32)nc2c1[nH]c(=O)n2C1CCOc2ccccc21 (stereo not shown)
< 100	N#Cc1ccc2ncn(-c3nc(N4CC(F)(F)C4)c4[nH]c(=O)n(CC5CCOC5)c4n3)c2c1 (stereo not shown)
< 100	O=c1[nH]c2c(NC3CCC3)nc(-n3cnc4ccc(F)cc43)nc2n1C1CCOCC1
< 100	O=c1[nH]c2c(Cl)nc(-n3cnc4ccc(F)cc43)nc2n1[C@@H]1CCOc2c(F)cccc21
< 100	O=C(c1nc(-n2cnc3ccc(F)cc32)nc2c1[nH]c(=O)n2C1CCOc2ccccc21)N1CCCCC1 (stereo not shown)

IC50 [nM]	SMILES
< 100	O=c1[nH]c2c(-c3ccc(F)nc3)nc(-n3cnc4ccc(F)cc43)nc2n1C1CCOCC1
< 100	Cn1c(=O)n(C2CCOCC2)c2nc(-n3cnc4ccc(Cl)cc43)nc(NCC(F)(F)CCl)c21
< 100	O=c1[nH]c2c(Oc3cccnc3)nc(-n3cnc4ccc(F)cc43)nc2n1C1CCOCC1
< 100	N#Cc1ccc2ncn(-c3nc(NC4CCCC4)c4[nH]c(=O)n(C5CCOCC5)c4n3)c2c1
< 100	Cn1c(=O)n([C@H]2CC[C@H](O)CC2)c2nc(-n3cnc4ccc(F)cc43)nc(N3CCC(F)(F)CC3)c21
< 100	N#CCNC(=O)c1nc(-n2cnc3ccc(F)cc32)nc2c1[nH]c(=O)n2C1CCOCC1
< 100	O=c1[nH]c2c(OC3CCC3)nc(-n3cnc4ccc(F)cc43)nc2n1C1CCOCC1
< 100	COc1ccc(-c2nc(-n3cnc4ccc(F)cc43)nc3c2[nH]c(=O)n3C2CCOCC2)cc1
< 100	N#Cc1ccc(-c2nc(-n3cnc4ccc(F)cc43)nc3c2[nH]c(=O)n3C2CCOCC2)cc1
< 100	O=c1[nH]c2c(-c3cncnc3)nc(-n3cnc4ccc(F)cc43)nc2n1C1CCOCC1
< 100	O=c1[nH]c2c(-c3ccccc3)nc(-n3cnc4ccc(F)cc43)nc2n1C1CCOCC1
< 100	CNC(=O)c1nc(-n2cnc3ccc(F)cc32)nc2c1[nH]c(=O)n2C1CCOCC1
< 100	CC(C)(C)NS(=O)(=O)c1cccc(-c2nc(-n3cnc4ccc(F)cc43)nc3c2[nH]c(=O)n3C2CCOCC2)c1
< 100	O=c1[nH]c2c(-c3cccc4[nH]ccc34)nc(-n3cnc4ccc(F)cc43)nc2n1C1CCOCC1
100 to 1000	O=c1[nH]c2c(-c3ccncc3)nc(-n3cnc4ccc(OC(F)(F)F)cc43)nc2n1C1CCOCC1
100 to 1000	O=C(c1nc(-n2cnc3ccc(F)cc32)nc2c1[nH]c(=O)n2C1CCOCC1)N1CCCCC1
100 to 1000	O=c1[nH]c2c(-c3ccc(F)cc3)nc(-n3cnc4ccc(F)cc43)nc2n1C1CCOCC1
100 to 1000	O=c1[nH]c2c(CO)nc(-n3cnc4ccc(F)cc43)nc2n1C1CCOCC1
100 to 1000	CCOC(=O)c1nc(-n2cnc3ccc(F)cc32)nc2c1[nH]c(=O)n2C1CCOc2ccccc21 (stereo not shown)
100 to 1000	O=c1[nH]c2c(OCC3CC3)nc(-n3cnc4ccc(F)cc43)nc2n1C1CCOCC1
100 to 1000	CCOC(=O)c1nc(-n2cnc3ccc(F)cc32)nc2c1[nH]c(=O)n2C1CCOCC1
100 to 1000	CCOC(=O)CCc1nc(-n2cnc3ccc(F)cc32)nc2c1[nH]c(=O)n2[C@@H]1CCOc2c(F)cccc21
